This note sets out measurements from patent US8053574B2, “Organic compounds” (Novartis AG, priority 2007, dated 2011).

One test deals with PI3K γ (Homo sapiens, UniProt P48736). Briefly: PI3 kinase phosphorylation assay (Biological Method 1), Ki γ. The test is classed as biochemical. The conditions noted are these: Table 1, compounds of formula X. On the procedure: The compounds of the invention were synthesized according to the examples provided above. PI3K inhibitory (IC50) values of the compounds were determined according to Biological Method 1.
PI3K γ, sequence (P48736 whole entry): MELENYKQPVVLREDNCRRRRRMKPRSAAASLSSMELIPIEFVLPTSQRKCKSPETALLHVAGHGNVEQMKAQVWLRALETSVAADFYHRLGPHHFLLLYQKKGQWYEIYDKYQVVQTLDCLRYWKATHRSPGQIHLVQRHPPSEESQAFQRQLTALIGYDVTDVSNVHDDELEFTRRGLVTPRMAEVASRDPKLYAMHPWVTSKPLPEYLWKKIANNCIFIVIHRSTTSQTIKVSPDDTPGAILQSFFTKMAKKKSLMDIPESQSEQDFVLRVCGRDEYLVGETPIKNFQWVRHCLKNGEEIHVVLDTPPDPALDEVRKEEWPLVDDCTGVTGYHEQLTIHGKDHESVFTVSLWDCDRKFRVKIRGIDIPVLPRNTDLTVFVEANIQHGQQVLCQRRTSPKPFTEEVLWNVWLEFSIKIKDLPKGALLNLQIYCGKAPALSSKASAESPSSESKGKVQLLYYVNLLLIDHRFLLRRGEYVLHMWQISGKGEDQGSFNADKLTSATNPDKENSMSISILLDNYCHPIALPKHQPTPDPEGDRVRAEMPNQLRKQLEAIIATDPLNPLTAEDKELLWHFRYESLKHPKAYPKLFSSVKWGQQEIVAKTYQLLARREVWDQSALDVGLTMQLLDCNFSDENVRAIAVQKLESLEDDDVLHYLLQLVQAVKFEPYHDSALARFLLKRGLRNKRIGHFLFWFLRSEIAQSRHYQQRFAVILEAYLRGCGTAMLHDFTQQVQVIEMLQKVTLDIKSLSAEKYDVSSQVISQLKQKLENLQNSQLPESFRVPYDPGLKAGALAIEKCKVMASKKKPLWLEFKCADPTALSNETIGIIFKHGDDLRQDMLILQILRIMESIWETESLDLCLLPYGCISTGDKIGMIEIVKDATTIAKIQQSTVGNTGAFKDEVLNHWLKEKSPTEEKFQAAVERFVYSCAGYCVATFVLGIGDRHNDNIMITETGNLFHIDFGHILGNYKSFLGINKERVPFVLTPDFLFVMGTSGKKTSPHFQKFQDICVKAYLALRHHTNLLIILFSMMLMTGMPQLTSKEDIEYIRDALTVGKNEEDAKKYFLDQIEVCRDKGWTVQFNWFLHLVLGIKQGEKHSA
Assay 1: Homogenous Solution Phase Assay
Compounds to be tested are dissolved in DMSO and directly distributed into 384-well flashplates at 1.25 μL per well. To start the reaction, 20 μL of 6 nM PI3 kinase are added into each well followed by 20 μL of 400 nM ATP containing a trace of radiolabeled ATP and 900 nM 1-alpha-phosphatidylinositol (PI). The plates are briefly centrifuged to remove any air gap. The reaction is performed for 15 minutes and then stopped by the addition of 20 μL of 100 mM EDTA. The stopped reaction is incubated overnight at RT to allow the lipid substrate to bind by hydrophobic interaction to the surface of the flashplate. The liquid in the wells is then washed away, and the labeled substrate is detected with scintillation counting.
Assay 2: One Step Solid Phase Assay
This method is similar to Assay 1 except that the lipid substrate (1-alpha-phosphatidylinositol (PI)) is first dissolved in a coating buffer and incubated on flashplate at room temperature overnight to allow the lipid substrate to bind by hydrophobic interaction to the surface of the flashplate. Unbound substrate is then washed away. On the day of assay, 20 μL of 6 nM PI3 kinase are added into each well followed by 20 μL of 400 nM ATP containing trace of radiolabeled ATP. Compounds are added together with enzyme and ATP to the lipid-coated plates. The plates are briefly centrifuged to remove any air gap. The reaction is performed for two to three hours. The reaction is stopped by addition of 20 μL of 100 mM EDTA or by immediate plate washing. Phosphorylated lipid substrate is detected by scintillation counting.
Assay 3: ATP Depletion Assay
Compounds to be tested are dissolved in DMSO and directly distributed into a black 384-well plate at 1.25 μL per well. To start the reaction, 25 μL of 10 nM PI3 kinase and 5 μg/mL 1-alpha-phosphatidylinositol (PI) are added into each well followed by 25 μL of 2 μM ATP. The reaction is performed until approx 50% of the ATP is depleted, and then stopped by the addition of 25 μL of KinaseGlo solution. The stopped reaction is incubated for 5 minutes and the remaining ATP is then detected via luminescence.
In the case of `CC(C)n1nnc(CCNC(=O)Nc2cn3cc(-c4ccncc4)ccc3n2)n1` [drawing 17], the affinity, expressed as Ki, was 0.135 µM.
Consider `CC(C)n1nnc(CCNC(=O)Nc2cn3cc(-c4cncc(-c5ccccc5)c4)ccc3n2)n1` [drawing 45], for which the inhibition constant Ki (commonly the equilibrium dissociation constant of an inhibitor or competing ligand from its target) stood at 0.24 µM.
On the same count and under the same terms, the result for `Cn1nnc(CCNC(=O)Nc2cn3cc(-c4cncc(C(F)(F)F)c4)ccc3n2)n1` [drawing 89] reads 0.012 µM.
On the same count and under the same terms, the result for `CC(C)n1nnc(CCNC(=O)Nc2cn3cc(-c4cncnc4)ccc3n2)n1` [drawing 21] reads 0.165 µM.
The same measure, in the same setting: the result for `CC(C)n1nnc(CCNC(=O)Nc2cn3cc(-c4cncc(S(C)(=O)=O)c4)ccc3n2)n1` reads 0.014 µM; that for `CCn1nnc(CCNC(=O)Nc2cn3cc(-c4cnn(Cc5ccccc5)c4)ccc3n2)n1`, 0.735 µM; that for `CCc1cncc(-c2ccc3nc(NC(=O)NCCc4nnn(C(C)C)n4)cn3c2)c1` [drawing 57], 0.025 µM.
The molecule `CCn1nnc(CCNC(=O)Nc2cn3cc(-c4cccc(C(F)(F)F)c4)ccc3n2)n1` [drawing 31] returned a Ki of 0.24 µM.
The molecule `Cc1ccccc1-c1cncc(-c2ccc3nc(NC(=O)NCCc4nnn(C(C)C)n4)cn3c2)c1` [drawing 91] yielded an inhibitory constant (Ki) of 1.12 µM.
The same measure, in the same setting: the result for `CCn1nnc(CCNC(=O)Nc2cn3cc(-c4cncc(C(F)(F)F)c4)ccc3n2)n1` [drawing 81] reads 0.007 µM.
Same read-out and setting: the result for `CC(=O)c1cncc(-c2ccc3nc(NC(=O)NCCc4nnn(C(C)C)n4)cn3c2)c1` [drawing 99] reads 0.008 µM; that for `CCc1nnn(CCNC(=O)Nc2cn3cc(-c4cncc(C#N)c4)ccc3n2)n1` [drawing 65], 0.115 µM.

The test is the same for the next values; noted with them: Table 2, compounds of formula X.
The molecule `CCn1nnc(CCNC(=O)Nc2cn3cc(-c4cccc(C(F)(F)F)c4)ccc3n2)n1` [Example 1-9, 1-[2-(2-Ethyl-2H-tetrazol-5-yl)-ethyl]-3-[6-(3-trifluoromethyl-phenyl)-imidazo[1,2-a]pyridin-2-yl]-urea] registered an inhibition constant (Ki) of 0.24 µM.
Same read-out and setting: the result for `CCc1nnn(CCNC(=O)Nc2cn3cc(-c4cncc(C(F)(F)F)c4)ccc3n2)n1` [Example 1-25, 1-[2-(5-Ethyl-tetrazol-2-yl)-ethyl]-3-[6-(5-trifluoromethyl-pyridin-3-yl)-imidazo[1,2-a]pyridin-2-yl]urea] reads 0.026 µM.
`CCn1nnc(CCNC(=O)Nc2cn3cc(-c4cnc5ccccc5c4)ccc3n2)n1` [Example 1-30, 1-[2-(2-Ethyl-2H-tetrazol-5-yl)-ethyl]-3-(6-quinolin-3-yl-imidazo[1,2-a]pyridin-2-yl)-urea]: affinity was put at a Ki of 0.57 µM.
Still for that read-out and setting: the result for `O=C(NCCn1nnc(C2CC2)n1)Nc1cn2cc(-c3cncc(C(F)(F)F)c3)ccc2n1` [Example 1-27, 1-[2-(5-Cyclopropyl-tetrazol-2-yl)-ethyl]-3-[6-(5-trifluoromethyl-pyridin-3-yl)-imidazo[1,2-a]pyridin-2-yl]-urea] reads 0.028 µM.
On the same count and under the same terms, the result for `Cc1ccccc1-c1cncc(-c2ccc3nc(NC(=O)NCCc4nnn(C(C)C)n4)cn3c2)c1` [Example 1-39, 1-[2-(2-Isopropyl-2H-tetrazol-5-yl)-ethyl]-3-[6-(5-o-tolyl-pyridin-3-yl)-imidazo[1,2-a]pyridin-2-yl]urea] reads 1.12 µM; that for `COc1ccc(-c2ccc3nc(NC(=O)NCCc4nnn(CCF)n4)cn3c2)cn1` [Example 1-20, 1-[2-[2-(2-Fluoro-ethyl)-2H-tetrazol-5-yl]-ethyl]-3-[6-(6-methoxy-pyridin-3-yl)-imidazo[1,2-a]pyridin-2-yl]-urea], 0.075 µM.

Staying with this test, now noted: Table 3, compounds of formula XI.
As for `COc1ccc(-c2ccc3nc(NC(=O)NCc4cccnc4)sc3c2)cn1` [Example 2-5, 1-[6-(6-Methoxy-pyridin-3-yl)-benzothiazol-2-yl]-3-pyridin-3-ylmethyl-urea], the Ki stood at 0.149 µM.
The same measure, in the same setting: the result for `CCNC(=O)Nc1nc2ccc(-c3ccc(OC)nc3)cc2s1` [Example 2-6, 1-Ethyl-3-[6-(6-methoxy-pyridin-3-yl)-benzothiazol-2-yl]urea] reads 0.406 µM.
